Measured values as given in US8273769B2, “Phenoxy acetic acid derivatives” (Merck Serono SA, priority 2009, dated 2012).
pEC50, pIC50: −log10 of the molar value.

Assays:
CRTH2 [1] = biological target: T1, CRTH2 (Homo sapiens, UniProt Q9Y5Y4); assay: Radioligand binding Scintillation Proximity Assay ([3H]PGD2, hCRTH2-CHO cell membranes); design: host or cells: CHO cells; conditions: 1.5 nM [3H]PGD2, hCRTH2-CHO cell membranes, SPA
T1 sequence (Q9Y5Y4 1-395): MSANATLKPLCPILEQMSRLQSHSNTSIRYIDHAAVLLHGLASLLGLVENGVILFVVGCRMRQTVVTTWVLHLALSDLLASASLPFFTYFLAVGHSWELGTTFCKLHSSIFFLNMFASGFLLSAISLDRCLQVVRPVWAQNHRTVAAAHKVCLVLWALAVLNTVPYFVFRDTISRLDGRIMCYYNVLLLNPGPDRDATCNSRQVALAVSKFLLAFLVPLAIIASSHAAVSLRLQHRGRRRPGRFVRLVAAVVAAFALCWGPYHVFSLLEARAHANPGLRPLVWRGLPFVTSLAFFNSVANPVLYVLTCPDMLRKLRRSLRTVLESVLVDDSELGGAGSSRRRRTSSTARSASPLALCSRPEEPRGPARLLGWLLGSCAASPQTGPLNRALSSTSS
How it was run: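 SPA competition binding at room temperature, 90 min with agitation: 1.5 nM [3H]PGD2, 10-50 μg/ml hCRTH2-CHO membrane protein, WGA SPA beads, HEPES pH 7.4 with 10 mM MnCl2, 1% DMSO. Non-specific binding defined with 10 μM PGD2; scintillation counting.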

CRTH2 [2] = biological target: T1, CRTH2; assay: [35S]GTPγS binding assay (CHO-CRTH2 cell membranes); format: biochemical; design: expressed in transfected cells; host or cells: CHO-CRTH2 cells; conditions: for pIC50: antagonist mode, fixed concentration of PGD2 (EC80)
Description: Adherent CHO cells expressing hCRTH2 (Euroscreen, Belgium) were cultured in 225 cm^2 cell culture flasks (Corning, USA) in 30 ml of medium. After two rinses of phosphate buffered saline (PBS), cells were harvested in 10 ml of PBS containing 1 mM EDTA, centrifuged at 500×g for 5 min at 4° C. and frozen at −80° C. The pellet was re-suspended in 50 mM Tris-HCl, pH 7.4, 2 mM EDTA, 250 mM Sucrose, containing protease inhibitor cocktail tablets, (Complete EDTA-free, Roche, Germany) and incubated 30 min at 4° C. Cells were disrupted by nitrogen cavitation (Parr Instruments, USA) at 4° C. (800 p.s.i. for 30 min), and centrifuged at 500×g for 10 min at 4° C. Pellet containing nuclei and cellular debris was discarded and supernatant was centrifuged 60 min at 4° C. at 45000×g. Membrane pellet was re-suspended in storage buffer (10 mM HEPES/KOH pH 7.4, 1 mM EDTA, 250 mM sucrose, protease inhibitor cocktail tablets) using Dounce homogenization and frozen in liquid nitrogen, and stored at −80° C.
The [^35S]GTPγS assay measures the increase in guanine nucleotide exchange at G-proteins in cell membranes, resulting from agonist (PGD2) binding to CRTH2. This process can be monitored in vitro by incubating cell membranes containing G-proteins and CRTH2 with GDP and [^35S]GTPγS, a radiolabeled, hydrolysis-resistant analogue of GTP (see, Harrison et al., Life Sciences 74, 489-508, 2003). The addition of a Compounds of Formula (I) results in binding to CRTH2 and thus in an inhibition of agonist binding, which can be monitored as inhibition of the stimulation of GTP/GDP exchange.
Briefly, Compounds of Formula (I) are incubated in 96-well scintillating white polystyrene plates (Perkin Elmer, USA) in a final volume of 200 μl containing 20 mM HEPES/KOH pH 7.4, 3 mM MgCl2, 10 μg/ml Saponin, 5 μM GDP, 75 mM NaCl and 2% of dimethylsulphoxide (DMSO). Reaction is triggered by the addition of 5-10 μg of CHO-CRTH2 cell membranes and 0.15 nM [^35S]GTPγS. After 60 min incubation at 30° C., reaction is stopped by centrifugation at 700×g, at 4° C. for 10 minutes and supernatant is removed. The radioactivity coming from the [^35S]GTPγS bound on centrifuged cell membranes is recorded using a 1450 Micro-beta scintillation counter. For IC50 determination, increasing concentrations of compounds are incubated in presence of a fixed concentration of PGD2 (EC80). For EC50 measurements, compounds are incubated without addition of PGD2. Basal [^35S]GTPγS activity is determined without addition of any ligands or compounds. 100% [^35S]GTPγS activity is measured by the addition of 1 μM of PGD2.

CRTH2 [3] = biological target: T1, CRTH2; assay: Cellular Dielectric Spectroscopy (CHO-CRTH2 cells); format: cell-based; design: expressed in transfected cells; host or cells: CHO-CRTH2 cells; conditions: for pIC50: antagonist mode, fixed concentration of PGD2 (EC80); for pEC50 / Emax: partial agonists, agonist activity without PGD2
Description: Cellular Dielectric Spectroscopy (CDS) is a label-free technology based on the measurement of complex impedance changes (delta Z or dZ). Impedance (Z) is related to the ratio of voltage to current as described by Ohm's law (Z=V/I). In order to measure the changes in impedance that occur in response to receptor stimulation, mammalian cells are seeded onto a custom 96-well microliter plate that contains electrodes at the bottom of each well. Key contributors to the impedance measurements are changes in cell-substrate adherence, changes in cell shape and volume, and changes in cell-cell interactions. These factors individually or collectively affect the flow of current, influencing the magnitude and characteristics of the signal measured. G-protein coupled receptors ligand-induced activity can be measured using this technology and specific G protein coupling can be identified. Activities of reference agonist and antagonist molecules of CRTH2 have been measured using this assay and similar results were obtained compared to different functional assays.
CHO-CRTH2 cells are cultured in HAM's F12 (Lonza, Switzerland) supplemented with 10% foetal calf serum (PAA, Australia) and 400 μg/ml Geneticin. 100000 cells/well are seeded in standard 96W Microplates (MDS Analytical Technologies) and incubated at 37° C. in 5% CO2 for 24 hours. Cells are washed twice with 135 μl of cell key buffer (Hank's Balanced Salt Solution 1× (HBSS) (Invitrogen) supplemented with 10 mM HEPES pH 7.4 in presence of 1% DMSO). For EC50 determination. 15 μl of increasing concentration of Compounds of Formula (I) diluted in cell key buffer are added to the cells and agonist activity is then recorded for 25 minutes. […] Results are expressed as the amplitude between the highest and the lowest signal produced (max-min). Basal and maximum activities are measured, respectively in absence or presence of PGD2 (EC80).

[4] = inverse agonists, 100% of Emax = activity with 1 μM PGD2

Compound `O=C(O)COc1ccc(Cl)cc1C#Cc1cccc(Cl)c1` [Example 3, {4-chloro-2-[(3-chlorophenyl)ethynyl]phenoxy}acetic acid] has a pIC50 (CRTH2 [1]) of 7.59 and a pIC50 (CRTH2 [2]) of 6.98.

For `O=C(O)COc1ccc(Cl)cc1C#Cc1ccccc1Cl` [Example 4, {4-chloro-2-[(2-chlorophenyl)ethynyl]phenoxy}acetic acid], the pIC50 (CRTH2 [1]) was 7.82 and the pIC50 (CRTH2 [2]) was 7.43.

In the case of `Cc1ccncc1C#Cc1cc(Cl)ccc1OCC(=O)O` [Example 15, {4-chloro-2-[(4-methylpyridin-3-yl)ethynyl]phenoxy}acetic acid], the pIC50 (CRTH2 [1]) was 7.52, the pIC50 (CRTH2 [3]) was 7.13 and the pEC50 (CRTH2 [3]) was 7.28. The Emax (CRTH2 [3]) was 46%.

Work on `O=C(O)COc1ccc(Cl)cc1C#Cc1cccc(S(=O)(=O)CCO)c1` [Example 20, [4-chloro-2-({3-[(2-hydroxyethyl)sulfonyl]phenyl}ethynyl)phenoxy]acetic acid] yielded a pIC50 (CRTH2 [1]) of 7.92 and a pIC50 (CRTH2 [2]) of 6.54.

In the case of `CCCS(=O)(=O)c1cccc(C#Cc2cc(C#N)ccc2OCC(=O)O)c1` [Example 32, (4-cyano-2-{[3-(propylsulfonyl)phenyl]ethynyl}phenoxy)acetic acid], the pIC50 (CRTH2 [1]) was 7.60 and the pIC50 (CRTH2 [2]) was 6.73.

Work on `CCCS(=O)(=O)c1ccc(C)c(C#Cc2cc(C#N)ccc2OCC(=O)O)c1` [Example 40, (4-cyano-2-{[2-methyl-5-(propylsulfonyl)phenyl]ethynyl}phenoxy)acetic acid] yielded a pIC50 (CRTH2 [1]) of 8.05 and a pIC50 (CRTH2 [2]) of 7.41.

`CCCc1ccncc1C#Cc1cc(Cl)ccc1OCC(=O)O` [Example 42, {4-chloro-2-[(4-propylpyridin-3-yl)ethynyl]phenoxy}acetic acid] gave a pIC50 (CRTH2 [1]) of 8.30, a pIC50 (CRTH2 [2]) of 8.00 and a pIC50 (CRTH2 [3]) of 7.60.

For `CC(C)Cc1ccncc1C#Cc1cc(Cl)ccc1OCC(=O)O` [Example 43, {4-chloro-2-[(4-isobutylpyridin-3-yl)ethynyl]phenoxy}acetic acid], the pIC50 (CRTH2 [1]) was 8.22 and the pIC50 (CRTH2 [3]) was 6.57.

Work on `Cc1ccncc1C#Cc1cc(C#N)ccc1OCC(=O)O` [Example 44, {4-cyano-2-[(4-methylpyridin-3-yl)ethynyl]phenoxy}acetic acid] yielded a pIC50 (CRTH2 [1]) of 7.22, an Emax (CRTH2 [2]; partial agonist, without PGD2, 100% = activity with 1 μM PGD2) of 13% and a pEC50 (CRTH2 [2]; partial agonist, without addition of PGD2) of 7.40. The pEC50 (CRTH2 [3]) was 6.94 and the Emax (CRTH2 [3]) was 59%.

`Cc1ccc(S(=O)(=O)CC(C)C)cc1C#Cc1cc(Cl)ccc1OCC(=O)O` [Example 53, (4-chloro-2-{[5-(isobutylsulfonyl)-2-methylphenyl]ethynyl}phenoxy)acetic acid] showed a pIC50 (CRTH2 [1]) of 8.30 and a pIC50 (CRTH2 [3]) of 7.30.

In the case of `Cc1ccc(S(=O)(=O)CCCO)cc1C#Cc1cc(Cl)ccc1OCC(=O)O` [Example 54, [4-chloro-2-({5-[(3-hydroxypropyl)sulfonyl]-2-methylphenyl}ethynyl)phenoxy]acetic acid], the pIC50 (CRTH2 [1]) was 8.00 and the pIC50 (CRTH2 [3]) was 7.43.

In the case of `CCCS(=O)(=O)c1cccc(C#Cc2cc(C(F)(F)F)ccc2OCC(=O)O)c1` [Example 55, [2-{[3-(propylsulfonyl)phenyl]ethynyl}-4-(trifluoromethyl)phenoxy]acetic acid], the pIC50 (CRTH2 [1]) was 7.89, the pEC50 (CRTH2 [3]) was 7.62 and the Emax (CRTH2 [3]) was 62%.

Compound `CN(C)S(=O)(=O)c1cncc(C#Cc2cc(C#N)ccc2OCC(=O)O)c1` [Example 67, [4-cyano-2-({5-[(dimethylamino)sulfonyl]pyridin-3-yl}ethynyl)phenoxy]acetic acid] has a pIC50 (CRTH2 [1]) of 7.07 and a pIC50 (CRTH2 [3]) of 7.47.

`CC(C)c1ccc(S(C)(=O)=O)cc1C#Cc1cc(Cl)ccc1OCC(=O)O` [Example 70, (4-chloro-2-{[2-isopropyl-5-(methylsulfonyl)phenyl]ethynyl}phenoxy)acetic acid] showed a pIC50 (CRTH2 [1]) of 8.15 and a pIC50 (CRTH2 [3]) of 7.68.

`CC(C)c1ccc(S(C)(=O)=O)cc1C#Cc1cc(C#N)ccc1OCC(=O)O` [Example 71, (4-cyano-2-{[2-isopropyl-5-(methylsulfonyl)phenyl]ethynyl}phenoxy)acetic acid] was tested, and the pIC50 (CRTH2 [1]) was 7.80 and the pIC50 (CRTH2 [3]) was 7.82.

`Cc1ccc(S(=O)(=O)NC(C)C)cc1C#Cc1cc(Cl)ccc1OCC(=O)O` [Example 86, [4-chloro-2-({5-[(isopropylamino)sulfonyl]-2-methylphenyl}ethynyl)phenoxy]acetic acid] gave a pIC50 (CRTH2 [1]) of 8.30 and a pIC50 (CRTH2 [3]) of 6.93.

In the case of `Cc1ccc(S(=O)(=O)N(C)C(C)C)cc1C#Cc1cc(Cl)ccc1OCC(=O)O` [Example 87, {4-chloro-2-[(5-{[isopropyl(methyl)amino]sulfonyl}-2-methylphenyl)ethynyl]phenoxy}acetic acid], the pIC50 (CRTH2 [1]) was 8.22 and the pIC50 (CRTH2 [3]) was 7.08.

For `CCCS(=O)(=O)c1cccc(C#Cc2cc(-c3ccccc3)ccc2OCC(=O)O)c1` [Example 131, [(3-{[3-(Propylsulfonyl)phenyl]ethynyl}biphenyl-4-yl)oxy]acetic acid], the pIC50 (CRTH2 [1]) was 7.62, the pEC50 (CRTH2 [3]) was 7.13 and the Emax (CRTH2 [3]) was 68%.

With `CS(=O)(=O)c1cc(C#Cc2cc(Cl)ccc2OCC(=O)O)ccc1-c1ccccc1` [Example 140, (4-chloro-2-{[2-(methylsulfonyl)biphenyl-4-yl]ethynyl}phenoxy)acetic acid] the pIC50 (CRTH2 [1]) was 8.22, the pIC50 (CRTH2 [2]) was 7.43 and the Emax (CRTH2 [2]; [4]) was -11%.

In the case of `CC(=O)Nc1ccc(C#Cc2cc(Cl)ccc2OCC(=O)O)cc1` [Example 152, (2-{[4-(acetylamino)phenyl]ethynyl}-4-chlorophenoxy)acetic acid], the pIC50 (CRTH2 [1]) was 7.55 and the Emax (CRTH2 [2]; [4]) was -13%.

Compound `CCCS(=O)(=O)c1ccc(F)c(C#Cc2cc(Cl)ccc2OC(C)C(=O)O)c1` (stereo not drawn) [Example 168, 2-(4-chloro-2-{[2-fluoro-5-(propylsulfonyl)phenyl]ethynyl}phenoxy)propanoic acid] has a pIC50 (CRTH2 [1]) of 8.52, a pIC50 (CRTH2 [2]) of 8.05 and an Emax (CRTH2 [2]; [4]) of -13%.

`CCCS(=O)(=O)c1ccc(C)c(C#Cc2cc(Cl)ccc2OC(C)C(=O)O)c1` (stereo not drawn) [Example 173, 2-(4-chloro-2-{[2-methyl-5-(propylsulfonyl)phenyl]ethynyl}phenoxy)propanoic acid] gave a pIC50 (CRTH2 [1]) of 9.00 and a pIC50 (CRTH2 [2]) of 8.15.
